Data reported in BindingDB's records for doi:10.1021/acs.jmedchem.1c00124 (Hemoshear Therapeutics, 2021).

Key:
[1] = Time-dependent inhibition of CYP2D6 in human liver microsomes using bufuralol as substrate preincubated for 30 mins
[2] = Time-dependent inhibition of CYP2C8 in human liver microsomes using amodiaquine as substrate preincubated for 30 mins
[3] = Direct inhibition of CYP2C8 in human liver microsomes using amodiaquine as substrate
[4] = Direct inhibition of CYP1A2 in human liver microsomes using Phenacetin as substrate
[5] = Direct inhibition of CYP2C19 in human liver microsomes using S-mephenytoin as substrate
[6] = Direct inhibition of CYP2D6 in human liver microsomes using bufuralol as substrate
[7] = Time-dependent inhibition of CYP2C9 in human liver microsomes using diclofenac as substrate preincubated for 30 mins
[8] = Direct inhibition of CYP2C9 in human liver microsomes using diclofenac as substrate
[9] = Time-dependent inhibition of CYP1A2 in human liver microsomes using Phenacetin as substrate preincubated for 30 mins
[10] = Time-dependent inhibition of CYP2C19 in human liver microsomes using S-mephenytoin as substrate preincubated for 30 mins

IC50 [1]: > 10 mM | IC50 [2]: > 10 mM | IC50 [3]: > 10 mM | IC50 [4]: > 10 mM | IC50 [5]: > 10 mM | IC50 [6]: > 10 mM | IC50 [7]: > 10 mM | IC50 [8]: > 10 mM | IC50 [9]: > 10 mM | IC50 [10]: > 10 mM
Structure (SMILES): CCC(C)(C)C(=O)O [2,2-DIMETHYLBUTYRATE]
